Results reported in PubChem BioAssay AID256 (DTP/NCI, 2004).
“And” between values parts separate entries of the source, which are not always exact repeats. Equal values may be shown once. Inconclusive results and toxic doses are left out.

System: CD2F1 mice, L1210 leukemia ip, survival T/C
Experiment: NCI In Vivo Anticancer Drug Screen. Data for tumor model L1210 Leukemia (intraperitoneal) in CD2F1 (CDF1) mice
Settings: higher = longer survival
In short: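 Tumor-bearing mice (transplanted tumor) were split into treated and vehicle control groups, and the measured endpoint of each treated group was divided by that of its vehicle controls.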

[1] = endpoint: mean survival time, dose: 100.0 mg/kg/injection, schedule: Q01DX009 (ip), vehicle: saline with Tween-80
[2] = endpoint: mean survival time, dose: 25.0 mg/kg/injection, schedule: Q04DX002 (ip), vehicle: saline with Tween-80
[3] = endpoint: mean survival time, dose: 100.0 mg/kg/injection, schedule: Q04DX002 (ip), vehicle: saline with Tween-80
[4] = endpoint: mean survival time, dose: 100.0 mg/kg/injection, schedule: Q04DX003 (ip), vehicle: saline with Tween-80
[5] = endpoint: mean survival time, dose: 200.0 mg/kg/injection, schedule: Q04DX003 (ip), vehicle: saline with Tween-80
[6] = endpoint: mean survival time, dose: 400.0 mg/kg/injection, schedule: Q04DX003 (ip), vehicle: saline with Tween-80

CNC(=S)C#N
T/C (endpoint: median survival time, dose: 6.25 mg/kg/injection, schedule: Q01DX005 (ip), vehicle: saline + Tween-80 + alcohol): 100 % of control
T/C (endpoint: median survival time, dose: 12.5 mg/kg/injection, schedule: Q01DX005 (ip), vehicle: saline + Tween-80 + alcohol): 97 % of control
T/C (endpoint: median survival time, dose: 25.0 mg/kg/injection, schedule: Q01DX005 (ip), vehicle: saline + Tween-80 + alcohol): 98 % of control and 102 % of control
T/C (endpoint: median survival time, dose: 50.0 mg/kg/injection, schedule: Q01DX005 (ip), vehicle: saline + Tween-80 + alcohol): 87 % of control and 112 % of control

CC([NH-])C(C)[NH-].CC([NH-])C(C)[NH-].[Cl][Co][Cl] (centres undefined)
T/C (endpoint: mean survival time, dose: 100.0 mg/kg/injection, schedule: Q04DX002 (ip), vehicle: saline): 103 % of control

N=C(N)SCCCSC(=N)N
T/C (endpoint: mean survival time, dose: 25.0 mg/kg/injection, schedule: Q01DX009 (ip), vehicle: saline with Tween-80): 101 % of control
T/C (endpoint: mean survival time, dose: 50.0 mg/kg/injection, schedule: Q01DX009 (ip), vehicle: saline with Tween-80): 96 % of control
T/C (endpoint: mean survival time, dose: 50.0 mg/kg/injection, schedule: Q04DX003 (ip), vehicle: saline): 98 % of control
T/C [1]: 90 % of control
T/C (endpoint: mean survival time, dose: 100.0 mg/kg/injection, schedule: Q04DX003 (ip), vehicle: saline): 104 % of control
T/C (endpoint: mean survival time, dose: 200.0 mg/kg/injection, schedule: Q04DX003 (ip), vehicle: saline): 102 % of control

O=C1CCCCc2c1ccc(O)c2[N+](=O)[O-]
T/C (endpoint: mean survival time, dose: 12.5 mg/kg/injection, schedule: Q01DX009 (ip), vehicle: saline): 113 % of control
T/C (endpoint: mean survival time, dose: 25.0 mg/kg/injection, schedule: Q01DX009 (ip), vehicle: saline): 106 % of control
T/C (endpoint: mean survival time, dose: 50.0 mg/kg/injection, schedule: Q01DX009 (ip), vehicle: saline): 97 % of control

O=C1OC(c2ccc([N+](=O)[O-])cc2)=N/C1=C\c1ccc2c(c1)OCO2
T/C [2]: 95 % of control
T/C (endpoint: mean survival time, dose: 50.0 mg/kg/injection, schedule: Q04DX002 (ip), vehicle: saline with Tween-80): 98 % of control
T/C [3]: 91 % of control

CCOP(=O)(NCCCSC)OCC
T/C (endpoint: mean survival time, dose: 5.0 mg/kg/injection, schedule: Q01DX009 (ip), vehicle: saline): 96 % of control
T/C (endpoint: mean survival time, dose: 10.0 mg/kg/injection, schedule: Q01DX009 (ip), vehicle: saline): 97 % of control
T/C (endpoint: mean survival time, dose: 20.0 mg/kg/injection, schedule: Q01DX009 (ip), vehicle: saline): 88 % of control

CN(C)S(=O)(=O)c1ccccc1C(O)(c1ccccc1)c1ccccc1
T/C [1]: 103 % of control
T/C [4]: 104 % of control
T/C (endpoint: mean survival time, dose: 200.0 mg/kg/injection, schedule: Q01DX009 (ip), vehicle: saline with Tween-80): 94 % of control
T/C [5]: 101 % of control
T/C (endpoint: mean survival time, dose: 400.0 mg/kg/injection, schedule: Q01DX009 (ip), vehicle: saline with Tween-80): 101 % of control
T/C [6]: 98 % of control

Oc1ccc(/C=N/NC(=S)NN2CCOCC2)nc1
T/C (endpoint: mean survival time, dose: 3.12 mg/kg/injection, schedule: Q01DX009 (ip), vehicle: Klucel (hydroxypropylcellulose) (HPC)): 103 % of control
T/C (endpoint: mean survival time, dose: 6.25 mg/kg/injection, schedule: Q01DX009 (ip), vehicle: Klucel (hydroxypropylcellulose) (HPC)): 104 % of control
T/C (endpoint: mean survival time, dose: 12.5 mg/kg/injection, schedule: Q01DX009 (ip), vehicle: Klucel (hydroxypropylcellulose) (HPC)): 101 % of control
T/C (endpoint: mean survival time, dose: 25.0 mg/kg/injection, schedule: Q01DX009 (ip), vehicle: Klucel (hydroxypropylcellulose) (HPC)): 121 % of control
T/C [2]: 101 % of control
T/C (endpoint: mean survival time, dose: 50.0 mg/kg/injection, schedule: Q01DX009 (ip), vehicle: Klucel (hydroxypropylcellulose) (HPC)): 95 % of control
T/C [3]: 91 % of control and 94 % of control

O=C(COc1ccc(Br)cc1C(=O)O)Nc1ccccc1
T/C [4]: 96 % of control
T/C [5]: 97 % of control
T/C [6]: 94 % of control

CCC(CC)(C[NH-])C[NH-].[Cl][Pt+2][Cl]
T/C (endpoint: mean survival time, dose: 1.56 mg/kg/injection, schedule: Q04DX003 (ip), vehicle: saline): 105 % of control
T/C (endpoint: mean survival time, dose: 3.12 mg/kg/injection, schedule: Q04DX003 (ip), vehicle: saline): 118 % of control
T/C (endpoint: mean survival time, dose: 6.25 mg/kg/injection, schedule: Q04DX003 (ip), vehicle: saline): 119 % of control
T/C (endpoint: mean survival time, dose: 12.5 mg/kg/injection, schedule: Q04DX003 (ip), vehicle: saline with Tween-80): 319 % of control
T/C (endpoint: mean survival time, dose: 12.5 mg/kg/injection, schedule: Q04DX003 (ip), vehicle: saline): 155 % of control
T/C (endpoint: mean survival time, dose: 25.0 mg/kg/injection, schedule: Q04DX003 (ip), vehicle: saline with Tween-80): 307 % of control
T/C (endpoint: mean survival time, dose: 25.0 mg/kg/injection, schedule: Q04DX003 (ip), vehicle: saline): 227 % of control
T/C (endpoint: mean survival time, dose: 50.0 mg/kg/injection, schedule: Q04DX003 (ip), vehicle: saline with Tween-80): 86 % of control
T/C (endpoint: median survival time, dose: 1.5 mg/kg/injection, schedule: Q01DX009 (ip), vehicle: carboxymethylcellulose (CMC)): 234 % of control
T/C (endpoint: median survival time, dose: 3.0 mg/kg/injection, schedule: Q01DX009 (ip), vehicle: carboxymethylcellulose (CMC)): 203 % of control
T/C (endpoint: median survival time, dose: 6.0 mg/kg/injection, schedule: Q01DX001 (ip), vehicle: carboxymethylcellulose (CMC)): 203 % of control
T/C (endpoint: median survival time, dose: 6.0 mg/kg/injection, schedule: Q01DX009 (ip), vehicle: carboxymethylcellulose (CMC)): 109 % of control
T/C (endpoint: median survival time, dose: 9.0 mg/kg/injection, schedule: Q01DX001 (ip), vehicle: carboxymethylcellulose (CMC)): 312 % of control
T/C (endpoint: median survival time, dose: 9.0 mg/kg/injection, schedule: Q01DX009 (ip), vehicle: carboxymethylcellulose (CMC)): 98 % of control
T/C (endpoint: median survival time, dose: 12.0 mg/kg/injection, schedule: Q01DX001 (ip), vehicle: carboxymethylcellulose (CMC)): 312 % of control
T/C (endpoint: median survival time, dose: 15.0 mg/kg/injection, schedule: Q01DX001 (ip), vehicle: carboxymethylcellulose (CMC)): 106 % of control

COc1ccc(N=C(C(=O)c2ccccc2)c2ccccc2)cc1
T/C (endpoint: mean survival time, dose: 100.0 mg/kg/injection, schedule: Q01DX001 (ip), vehicle: saline with Tween-80): 95 % of control
T/C (endpoint: mean survival time, dose: 200.0 mg/kg/injection, schedule: Q01DX001 (ip), vehicle: saline with Tween-80): 93 % of control
T/C (endpoint: mean survival time, dose: 400.0 mg/kg/injection, schedule: Q01DX001 (ip), vehicle: saline with Tween-80): 100 % of control

[Pd].[Pd].[S-]CC[S-].[S-]CC[S-].c1ccc([PH+](c2ccccc2)c2ccccc2)cc1.c1ccc([PH+](c2ccccc2)c2ccccc2)cc1
T/C (endpoint: mean survival time, dose: 3.13 mg/kg/injection, schedule: Q04DX003 (ip), vehicle: distilled water + Tween-80): 106 % of control
T/C (endpoint: mean survival time, dose: 6.25 mg/kg/injection, schedule: Q04DX003 (ip), vehicle: distilled water + Tween-80): 98 % of control
T/C (endpoint: mean survival time, dose: 12.5 mg/kg/injection, schedule: Q04DX003 (ip), vehicle: distilled water + Tween-80): 95 % of control
T/C (endpoint: mean survival time, dose: 25.0 mg/kg/injection, schedule: Q04DX003 (ip), vehicle: distilled water + Tween-80): 92 % of control
T/C (endpoint: mean survival time, dose: 50.0 mg/kg/injection, schedule: Q04DX003 (ip), vehicle: distilled water + Tween-80): 95 % of control
T/C (endpoint: mean survival time, dose: 100.0 mg/kg/injection, schedule: Q04DX003 (ip), vehicle: distilled water + Tween-80): 92 % of control
T/C (endpoint: mean survival time, dose: 200.0 mg/kg/injection, schedule: Q04DX003 (ip), vehicle: distilled water + Tween-80): 93 % of control

OCCN1CCCCCCC1
T/C (endpoint: mean survival time, dose: 75.0 mg/kg/injection, schedule: Q01DX001 (ip), vehicle: saline): 95 % of control
T/C (endpoint: mean survival time, dose: 150.0 mg/kg/injection, schedule: Q01DX001 (ip), vehicle: saline): 102 % of control

COc1ccc2oc3c(ccc[n+]3C)c(=O)c2c1
T/C (endpoint: median survival time, dose: 60.0 mg/kg/injection, schedule: Q01DX005 (ip), vehicle: saline with Tween-80): 104 % of control
T/C (endpoint: median survival time, dose: 120.0 mg/kg/injection, schedule: Q01DX005 (ip), vehicle: saline with Tween-80): 108 % of control
T/C (endpoint: median survival time, dose: 240.0 mg/kg/injection, schedule: Q01DX005 (ip), vehicle: saline with Tween-80): 122 % of control

OC[CH2][Hg][Br]
T/C (endpoint: mean survival time, dose: 0.37 mg/kg/injection, schedule: Q01DX009 (ip), vehicle: saline): 90 % of control
T/C (endpoint: mean survival time, dose: 0.75 mg/kg/injection, schedule: Q01DX009 (ip), vehicle: saline): 92 % of control
T/C (endpoint: mean survival time, dose: 1.5 mg/kg/injection, schedule: Q01DX009 (ip), vehicle: saline): 95 % of control
T/C (endpoint: mean survival time, dose: 3.0 mg/kg/injection, schedule: Q01DX009 (ip), vehicle: saline): 93 % of control

c1ccc(C(c2ccccc2)c2ccccc2)cc1
T/C [4]: 97 % of control
T/C [5]: 98 % of control

CCCCS(=O)(=O)CC(O)c1ccccc1 (centres undefined)
T/C [3]: 115 % of control
T/C (endpoint: mean survival time, dose: 200.0 mg/kg/injection, schedule: Q04DX002 (ip), vehicle: saline with Tween-80): 101 % of control
T/C (endpoint: mean survival time, dose: 400.0 mg/kg/injection, schedule: Q04DX002 (ip), vehicle: saline with Tween-80): 104 % of control

N#Cc1nc2c(nc1N)CCCCCCCCCC2
T/C (endpoint: mean survival time, dose: 100.0 mg/kg/injection, schedule: Q01DX001 (ip), vehicle: Klucel (hydroxypropylcellulose) (HPC)): 87 % of control
T/C (endpoint: mean survival time, dose: 200.0 mg/kg/injection, schedule: Q01DX001 (ip), vehicle: Klucel (hydroxypropylcellulose) (HPC)): 87 % of control
T/C (endpoint: mean survival time, dose: 400.0 mg/kg/injection, schedule: Q01DX001 (ip), vehicle: Klucel (hydroxypropylcellulose) (HPC)): 87 % of control
